Laboratory results published in ChEMBL document CHEMBL3867428, “Eremophilane Sesquiterpenes from an Endophytic Fungus Periconia Species” (J Nat Prod, 2016).
pIC50: −log10 of the molar value.

Legend:
[1] = Antiinflammatory activity in […] cells assessed as inhibition of LPS-induced NO production at 1 uM preincubated with compound followed by LPS stimulation after 24 hrs; assay type: functional; conditions: Mus musculus, BV-2
[2] = Cytotoxicity against human MCF7 cells assessed as reduction in cell viability after 96 hrs by MTT assay; assay type: functional, cell-based; conditions: MCF7, 96 h
[3] = Cytotoxicity against human HeLa cells assessed as reduction in cell viability after 96 hrs by MTT assay; assay type: functional, cell-based
[4] = test system: Human immunodeficiency virus 1; experiment: Antiviral activity against VSV-G pseudotyped HIV1 infected in human SupT1 cells after 48 hrs by luciferase reporter gene assay; assay type: functional, cell-based; conditions: Human immunodeficiency virus 1, SUP-T1, 48 h

## COc1cc(/C=C/C(=O)CC(=O)/C=C/c2ccc(O)c(OC)c2)ccc1O [CURCUMIN]
[1]
  inhibition at 1 µM: 12.9%

## CC(=O)O[C@H]1C(=O)[C@@]2(C)[C@H]([C@H](OC(=O)c3ccccc3)[C@]3(O)C[C@H](OC(=O)[C@H](O)[C@@H](NC(=O)c4ccccc4)c4ccccc4)C(C)=C1C3(C)C)[C@]1(OC(C)=O)CO[C@@H]1C[C@@H]2O [PACLITAXEL]
[2]
  pIC50: 9.70
[3]
  pIC50: 8.19

## C[C@@H]1C(=O)C=CC2=C[C@@H](O)[C@H](O)C[C@@]21C
[1]
  inhibition at 1 µM: 16.1%

## C=C(C)[C@]1(O)C[C@@]2(C)C(=C[C@H]1O)C=CC(=O)[C@@H]2C
[1]
  inhibition at 1 µM: 10.2%

## C=C(C)[C@@H]1C[C@@]2(C)C(=C[C@@H](O)[C@H](O)[C@@H]2C)[C@@H](O)[C@H]1O
[1]
  inhibition at 1 µM: 18.3%

## C[C@H]1C(=O)C=CC2=C[C@@H](O)[C@H](O)C[C@@]21C
[3]
  pIC50: 4.78
[4]
  pIC50: 4.96

## C=C(C)[C@@]1(O)C[C@@]2(C)C(=C[C@@H]1O)C=CC(=O)[C@H]2C
[2]
  pIC50: 4.75
